Experimental data from patent US20040023884A1, “Biologically active peptides from functional domains of bactericidal/permeability-increasing protein and uses thereof” (priority 1993, published 2004).

Columns and labels:
[1] = test system: rough mutant E. coli J5 bacteria; assay: Radial diffusion bactericidal assay, E. coli J5; format: cell-based; conditions: radial diffusion; for bactericidal activity (in words): E. coli J5; for pmol added to well to achieve a 30 mm^2 bactericidal zone, E. coli J5: PROBIT analysis, E. coli J5 (rough)
Method in brief: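 Log-phase bacteria (3 h at 37 °C in tryptic soy broth), washed in 10 mM sodium phosphate pH 7.4, were embedded at 4×10^6 CFU/mL in underlayer agarose. BPI proteolytic fragments (5 or 10 μL) went into 3 mm wells for 3 h at 37 °C, then agarose overlay and overnight 37 °C growth. Clear zones were measured by micrometer.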

[2] = 3H-heparin binding assay (affinity and capacity); conditions: for Heparin Capacity: heparin bound at saturation; for Kd: read-out: Heparin Affinity
Method in brief: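 Peptide fragments were bound to PVDF-membrane wells and incubated with 3H-heparin in blocking buffer for 1 h at 4 °C. After washing, bound radioactivity was quantified by liquid scintillation counting, with BSA background subtracted; rBPI23 served as positive control.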

[3] = test system: E. coli 0111:B4 (smooth) bacteria; assay: Radial diffusion bactericidal assay, E. coli 0111:B4; format: cell-based; conditions: radial diffusion; PROBIT analysis; E. coli O111:B4 (smooth)
Staphylococcus aureus = assay: Radial diffusion bactericidal assay, Staphylococcus aureus; format: cell-based; conditions: radial diffusion; PROBIT analysis; S. aureus
[4] = In vitro heparin-mediated lengthening of APTT / clotting time of heparinized plasma; format: biochemical, human; conditions: FIG. 12g
Description: In vitro, the effect of BPI combination functional domain peptides was determined on heparin-mediated lengthening of activated partial […] (APTT). The APTT is lengthened by the presence of endogenous or exogenous inhibitors of thrombin formation, such as therapeutically administered heparin. Thus, agents which neutralize the anti-coagulant effects of heparin will reduce the APTT measured by the test. Citrated human plasma (200 μL) was incubated for 1 minute at 37° C. with either 15 μL of diluent (0.15 M NaCl, 0.1 M Tris-HCl, pH 7.4) or 15 μL of the diluent also containing 25 μg/mL heparin (187 units/mg). Various concentrations (from 0.0 to 56 μg/mL) of rBPI23, rBPI21Δcys, or BPI combination peptides BPI.29 (the DIII homodimer) and BPI.30 (heterodimer DII+DIII) in a volume of 15 μL were added, followed immediately by 100 μL of thrombin reagent (Catalog No. 845-4, Sigma Chemical Co., St. Louis. MO). Clotting time ([…]) was measured using a BBL Fibrometer (Becton Dickenson Microbiology Systems, Cockeysville, Md.). […] FIG. 12e illustrates the results obtained with BPI.30 on a non-log scale.

[5] = test system: zymosan-stimulated NO production by RAW 264.7 cells; assay: Zymosan-stimulated NO production by RAW 264.7 cells; format: cell-based, mouse
Description: (§1) An additional LPS neutralization screening assay for BPI functional domain peptides was developed using an assay for NO production in mouse cells treated with LPS (see Lorsbach et al., 1993, J. Biol. Chem. 268: 1908-1913). In this assay, mouse RAW 264.7 cells (ATCC Accession No. TIB71) were treated with bacterial LPS. The cells were incubated in 96-well plates and stimulated for 2 hours with E. coli 0113 LPS or zymosan, in the presence or absence of _-interferon, rLBP, fetal bovine serum (FBS) or normal human serum (NHS), or rBPI21Δcys. After this incubation, the cells were washed with fresh media and incubated overnight in media containing 10% FCS. The NO released from the cells accumulated in the media and spontaneously converted to nitrite. This nitrite was assayed in situ by the Griess reaction, as follows. The nitrite was reacted with the primary amine of an added sulfanilamide and formed a diazonium salt. This salt was then reacted with added naphthylethylenediamine to form a red azo-dyc. The Griess reaction was performed at room temperature in about 10 minutes. The amount of produced NO was estimated from a standard curve of Griess reaction products determined spectrophotometrically as Absorbance at a wavelength of 550 nm.

[6] = Lipid A binding competition with [125I]-rLBP; conditions: for IC50: read-out: IC50 (inhibition of Lipid A binding of radiolabeled rLBP)
Description: A second binding assay was developed, wherein radiolabeled recombinant LPS binding protein ([^125I]-rLBP) was used instead of radiolabeled rBPI23 in competition experiments with BPI functional domain peptides BPI.2, BPI.3, BPI.4, BPI.5, BPI.7, BPI.13, BPI.14, BPI.29, BPI.30 and BPI.48, rBPI, rBPI21Δcys, and rLBP25 were included in these assays as controls. In these experiments, Lipid A was adsorbed to the wells at a concentration of 0.7 μg/mL in methanol. Incubation of radiolabeled rLBP (a total of 650,000 cpm and a specific activity of 3.45 μCi/μg) was performed for 2.5 hr at 37° C. in the presence of BPI peptides in a series of increasing concentrations. IC50 values (i.e., the concentration at which Lipid A binding of radiolabeled rLBP25 is inhibited to one half the value achieved in the absence of the peptide) are shown in accompanying Table XI.

[7] = test system: LPS-stimulated NO production by RAW 264.7 cells; assay: LPS-stimulated NO production by RAW 264.7 cells; format: cell-based, mouse
Description: as §1

Molecule | bactericidal activity (in words) [1] | pmol added to well to achieve a 30 mm^2 bactericidal zone, E. coli J5 [1] | heparin binding capacity (in words) [2] | Heparin Capacity [2] [ng] | Kd [2] [nM] | pmol added to well to achieve a 30 mm^2 bactericidal zone, E. coli O111:B4 [3] | pmol added to well to achieve a 30 mm^2 bactericidal zone, S. aureus (Staphylococcus aureus) | effect on the clotting time of heparinized blood (in words) [4] | inhibition of zymosan-stimulated NO production (in words) [5] | IC50 (inhibition of Lipid A binding of radiolabeled rLBP) [6] [µg/mL] | IC50 [6] [nM] | inhibition of LPS-stimulated NO production (in words) [7]
GTAALQKELKRIKIPDYSDSFKIKHLGKGH [BPI.14] | little or no bactericidal activity | b (no detectable activity up to 5 μg/well) | low heparin binding capacity | 119.3 | 396 | b (no detectable activity up to 5 μg/well) | b (no detectable activity up to 5 μg/well) | less of a decrease in clotting times | not inhibited | – | – | –
LQKELKRIKIPDYSDSFKIKHL [BPI.4] | little or no bactericidal activity | b (no detectable activity up to 5 μg/well) | low heparin binding capacity | 80.8 | 336 | b (no detectable activity up to 5 μg/well) | b (no detectable activity up to 5 μg/well) | less of a decrease in clotting times | not inhibited | – | – | –
rLBP25: LBP amino-terminal fragment, first 197 amino acids of lipopolysaccharide binding protein (protein) MGALARALPSILLALLLTSTPEALGANPGLVARITDKGLQYAAQEGLLALQSELLRITLPDFTGDLRIPHVGRGRYEFHSLNIHSCELLHSALRPVPGQGLSLSISDSSIRVQGRWKVRKSFFKLQGSFDVSVKGISISVNLLLGSESSGRPTVTASSCSSDIADVEVDMSGDLGWLLNLFHNQIESKFQKVLESRICEMIQKSVSSDLQPYLQTLPVTTEIDSFADIDYSLVEAPRATAQMLEVMFKGEIFHRNHRSPVTLLAAVMSLPEEHNKMVYFAISDYVFNTASLVYHEEGYLNFSITDEMIPPDSNIRLTTKSFRPFVPRLARLYPNMNLELQGSVPSAPLLNFSPGNLSVDPYMEIDAFVLLPSSSKEPVFRLSVATNVSATLTFNTSKITGFLKPGKVKVELKESKVGLFNAELLEALLNYYILNTFYPKFNDKLAEGFPLPLLKRVQLYDLGLQIHKDFLFLGANVQYMRV | – | – | – | – | – | – | – | less of a decrease in clotting times | No inhibition | 15 | 600 | inhibited in a concentration-dependent manner
rBPI: recombinant BPI holoprotein (SEQ ID NO:69) (protein) MRENMARGPCNAPRWVSLMVLVAIGTAVTAAVNPGVVVRISQKGLDYASQQGTAALQKELKRIKIPDYSDSFKIKHLGKGHYSFYSMDIREFQLPSSQISMVPNVGLKFSISNANIKISGKWKAQKRFLKMSGNFDLSIEGMSISADLKLGSNPTSGKPTITCSSCSSHINSVHVHISKSKVGWLIQLFHKKIESALRNKMNSQVCEKVTNSVSSKLQPYFQTLPVMTKIDSVAGINYGLVAPPATTAETLDVQMKGEFYSENHHNPPPFAPPVMEFPAAHDRMVYLGLSDYFFNTAGLVYQEAGVLKMTLRDDMIPKESKFRLTTKFFGTFLPEVAKKFPNMKIQIHVSASTPPHLSVQPTGLTFYPAVDVQAFAVLPNSSLASLFLIGMHTTGSMEVSAESNRLVGELKLDRLLLELKHSNIGPFPVELLQDIMNYIVPILVLPRVNEKLQKGFPLPTPARVQLYNVVLQPHQNFLLFGADVVYK | – | – | – | – | – | – | – | less of a decrease in clotting times | no significant inhibition | 0.65 | 13 | inhibited in a concentration-dependent manner
